Experimental data as given in patent publication US12553055B2, “Auxin-inducible degron system kit and use thereof” (Inter-University Research Institute Corporation Research …, priority 2019, dated 2026).

Assays:
[1] = target: T1, OsTIR1(F74A)/mAID-EGFP-NLS expressing cell (Oryza sativa subsp. japonica, UniProt Q7XVM8, F74A); assay: FACS analysis of mAID-EGFP-NLS reporter degradation in OsTIR1(F74A) expressing cell clones; format: cell-based, human
T1 construct: expressed in transfected cells
Experimental: Furthermore, the same experiment was also performed on three clones using an OsTIR1(F74A)/mAID-EGFP-NLS expressing cell.

[2] = target: T2, mAID-EGFP-CENPH (Oryza sativa subsp. japonica, UniProt Q7XVM8, F74G); assay: Western blotting of mAID-EGFP-CENPH degradation in HeLa cell (transposon vector + CRISPR-KO); format: cell-based, human; details: anti-CENPH antibody
T2 construct: P2A linker (self-cleaving; remnant); expressed in transfected cells; host or cells: HeLa; transposon vector plus CRISPR-KO vector
Source text: (§1) In this degradation system, (1) a transposon vector in which an OsTIR1(F74G) gene and an mAID-target gene are connected by a P2A linker gene and (2) a CRISPR-KO vector for knocking out an endogenous target gene containing gRNA and a Cas9 gene are contained.
(§2) In this degradation system, the OsTIR1(F74G) gene and the mAID-target gene in a genome are integrated by the transposon vector, and an endogenous target gene is knocked out by the CRISPR-KO vector.
(§3) The transposon vector in which an OsTIR1(F74G) gene and an mAID-EGFP-CENPH or mAID-EGFP-POLD1 target gene were connected by a P2A linker gene was constructed, and this vector was introduced into a HeLa cell together with the CRISPR-KO vector targeting an endogenous CENPH or POLD1 gene. 5-Ph-IAA was added to such a cell, and the degradation of the target protein was confirmed by Western blotting (FIG. 6).

[3] = target: T3, OsTIR1(F74G)/mAID-EGFP-NLS expressing cell (Oryza sativa subsp. japonica, UniProt Q7XVM8, F74G); assay: FACS analysis of mAID-EGFP-NLS reporter degradation in OsTIR1(F74G) expressing HCT116 cell; format: cell-based, human
T3 construct: expressed in transfected cells; host or cells: HCT116 (human colon adenocarcinoma-derived cell)
Experimental: (§4) An HCT116 cell (human colon adenocarcinoma-derived cell) having DNA in which an OsTIR1(WT) or OsTIR1(F74G) and an mAID-EGFP (green fluorescent protein)-NLS (nuclear localization signal) were encoded through a P2A sequence inserted onto a chromosome by a transposon (hereinafter, referred to as “OsTIR1(WT)/mAID-EGFP-NLS expressing cell” or “OsTIR1(F74G)/mAID-EGFP-NLS expressing cell”) was prepared (refer to FIG. 1).
(§5) The auxin analog (concentration in culture medium: 0, 200 μM) was added to the OsTIR1(F74G)/mAID-EGFP-NLS expressing cell and cultured for 24 hours. In addition, as a control, a cell containing an auxin added to the OsTIR1(WT)/mAID-EGFP-NLS expressing cell was also prepared.
(§6) After 24 hours from the addition of the auxin analog, the cells were collected, and FACS analysis was performed.
(§7) Furthermore, the same experiment was performed by adding 100 μM of an auxin to the OsTIR1(WT)/mAID-EGFP-NLS expressing cell, adding 1 μM of 5-Ph-IAA to the OsTIR1(F74G)/mAID-EGFP-NLS expressing cell, collecting the cells after four hours, and performing FACS analysis.
(§8) In order to compare OsTIR1(WT) and OsTIR1(F74G) in more detail, the degradation of the mAID-EGFP-NLS reporter was induced using IAA (auxin) and 5-Ph-IAA in different doses, respectively (refer to FIG. 10(A)). […] DC 50 values (concentrations for 50% degradation) were 300±30 nM and 0.45±0.01 nM in OsTIR1(WT) and OsTIR1(F74G), respectively, and it was confirmed that the system in which 5-Ph-IAA was used functioned at an approximately 670-times lower concentration compared with conventional auxin-inducible degron systems.
In order to investigate dynamics over time attributed to the removal of a target protein, samples after a lapse of time were taken, and the expression levels of the reporter were observed (refer to FIG. 10(B)). […]

[4] = target: T4, mAID-EGFP-POLD1 (Oryza sativa subsp. japonica, UniProt Q7XVM8, F74G); assay: Western blotting of mAID-EGFP-POLD1 degradation in HeLa cell (transposon vector + CRISPR-KO); format: cell-based, human; details: anti-POLD1 antibody, clones #1 to #3
T4 construct: P2A linker (self-cleaving; remnant); expressed in transfected cells; host or cells: HeLa; transposon vector plus CRISPR-KO vector
Source text: as §1, §2, §3

[5] = target: T5, OsTIR1(F74G)/DHC1-mAID-Clover expressing cell (Oryza sativa subsp. japonica, UniProt Q7XVM8, F74G); assay: Degradation induction test of DHC1 (microscopy, Western blotting); format: cell-based, human
T5 construct: expressed in transfected cells; host or cells: HCT116; OsTIR1(F74G) gene at the AAVS1 locus; endogenous DHC1 tagged by CRISPR/Cas9 homologous recombination
Experimental: A plasmid vector having mAID, clover and a neomycin resistance gene and having a homologous sequence with respect to a DHC1 gene so as to sandwich mAID and the neomycin resistance gene was introduced into the OsTIR1(WT)-expressing HCT116 cell or OsTIR1(F74G)-expressing HCT116 cell using a CRISPR/Cas9 system, and homologous recombination with the endogenous DHC1 gene was performed. Next, after selection by G418, the formed colony was dyed using crystal violet. “DHC1” is the abbreviation for dynein heavy chain 1.
A degradation induction test of DHC1 was performed using the HCT116 cell expressing OsTIR1(F74G) on which homologous recombination had been performed in the above-described section 2 (hereinafter, referred to as “OsTIR1(F74G)/DHC1-mAID-Clover expressing cell”).
The compound indicated by the formula (I-2) (also referred to as 5-Ph-IAA) was added to the OsTIR1(F74G)/DHC1-mAID-Clover expressing cell, and the appearance of the cell after 24 hours was observed (FIG. 4(A)).
Furthermore, the degradation of DHC1 was confirmed by Western blotting (FIG. 4(B)).
A CRISPR plasmid for adding a degron tag and two donors each having a neomycin-resistant marker or a hygromycin-resistant marker were transfected into a parent cell line constitutively expressing OsTIR1(WT or F74G) (refer to FIG. 14). In an OsTIR1(F74G) expressing cell, a colony was formed in the presence of G418 and hygromycin, and tags were added to DHC1 genes at both alleles (refer to FIG. 15(A)). In a cell expressing OsTIR1(WT), no colony was formed. […] This coincides with the fact that DHC1 is essential for the formation of a spindle that is formed during mitosis.

[6] = target: T6, RAD21-mAID-Clover (RAD21-mAC) cell expressing OsTIR1(F74G) (Oryza sativa subsp. japonica, UniProt Q7XVM8, F74G); assay: RAD21-mAC degradation in HCT116 cell expressing OsTIR1(F74G); format: cell-based, human
T6 construct: expressed in transfected cells; host or cells: human HCT116 constantly expressing OsTIR1(F74G); RAD21 tagged by genome editing
Experimental: (§9) A human HCT116 cell constantly expressing OsTIR1(F74G) was used as a material, an RAD21-mAID-Clover (RAD21-mAC) cell was generated by genome editing, and an effect of the addition of 5-Ph-IAA was confirmed. As shown in FIGS. 13(A) and (B), the expression level of RAD21-mAC was […] in a cell expressing OsTIR1(F74G) than in a cell expressing OsTIR1(WT) at 0 minutes before addition, and basal degradation was shown in conventional AID systems.

[7] = system: yeast strains with mAID tag on MCM10, SLD3 or CDC45; assay: Growth of mAID-tagged yeast strains expressing OsTIR1(WT, F74G or F74A) on plates; format: cell-based
Source text: In order to confirm that the AID2 system functions even in yeasts, OsTIR1(WT, F74G or F74A) was introduced into a URA3 gene locus under the control of a GAL1-10 promoter (refer to FIG. 12(A)). After that, an mAID tag was attached to a gene that encodes MCM10, SLD3 or CDC45, which is an essential replication initiator.

[8] = system: HCT116 cell; assay: Influence of 5-Ph-IAA treatment on HCT116 cell (cell cycle, colony formation); format: cell-based, human; details: 1 μM
Experimental: As shown in FIG. 9(A) in which the influence of the treatment with 1 μM of 5-Ph-IAA on the HCT116 cell was investigated, no influence was shown on the cell cycle. As shown in FIG. 9(B), no change in the colony formation efficiency was shown. It was confirmed that 5-Ph-IAA is an effective ligand and has no toxicity at 1 μM.

[9] = target: T7, SMC2, CTCF and POLR2A to which mAID is added (Oryza sativa subsp. japonica, UniProt Q7XVM8, F74G); assay: Degradation of mAID fused SMC2, CTCF and POLR2A in HCT116 constitutively expressing OsTIR1(F74G); format: cell-based, human; details: 1 μM
T7 construct: expressed in transfected cells; host or cells: HCT116 constitutively expressing OsTIR1(F74G); endogenous genes tagged
Source text: Regarding aSMC2 condensin complex, a CTCF insulator protein or the maximum subunit of RNA polymerase 2 (POLR2A) in which it was difficult to produce an AID cell line using an HCT116 cell constantly expressing OsTIR1(WT), whether or not a cell line can be generated with a cell constitutively expressing OsTIR1(F74G) was examined.

[10] = target: T8, RAD21-mAID-Clover (RAD21-mAC) cell expressing OsTIR1(WT) (Oryza sativa subsp. japonica, UniProt Q7XVM8); assay: RAD21-mAC degradation in HCT116 cell expressing OsTIR1(WT); format: cell-based, human; details: after the addition of a ligand
T8 construct: expressed in transfected cells; host or cells: RAD21-mAC cell expressing OsTIR1(WT) (HCT116 implied)
T8 sequence (Q7XVM8 1-575): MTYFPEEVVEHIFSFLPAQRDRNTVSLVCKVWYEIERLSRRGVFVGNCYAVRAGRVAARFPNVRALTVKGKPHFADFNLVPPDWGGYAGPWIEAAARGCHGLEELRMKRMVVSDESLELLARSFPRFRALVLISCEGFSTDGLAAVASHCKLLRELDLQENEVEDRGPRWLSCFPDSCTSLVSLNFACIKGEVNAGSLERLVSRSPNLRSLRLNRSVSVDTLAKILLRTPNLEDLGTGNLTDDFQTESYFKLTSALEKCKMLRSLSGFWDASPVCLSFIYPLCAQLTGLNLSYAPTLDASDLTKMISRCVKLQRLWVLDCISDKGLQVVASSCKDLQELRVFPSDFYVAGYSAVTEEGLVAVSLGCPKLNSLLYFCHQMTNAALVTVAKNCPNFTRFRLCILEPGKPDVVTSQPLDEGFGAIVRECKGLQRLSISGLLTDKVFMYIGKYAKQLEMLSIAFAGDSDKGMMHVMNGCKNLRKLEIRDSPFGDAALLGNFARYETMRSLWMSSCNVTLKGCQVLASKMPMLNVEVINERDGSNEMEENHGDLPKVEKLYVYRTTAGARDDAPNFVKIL
Experimental: as §9

[11] = target: T9, OsTIR1(WT)/mAID-EGFP-NLS expressing cell (Oryza sativa subsp. japonica, UniProt Q7XVM8); assay: FACS analysis of mAID-EGFP-NLS reporter degradation in OsTIR1(WT) expressing HCT116 cell (conventional system); format: cell-based, human
T9 construct: expressed in transfected cells; host or cells: HCT116 (human colon adenocarcinoma-derived cell)
Experimental: as §4, §5, §6, §7, §8
In order to investigate dynamics over time attributed to the removal of a target protein, samples after a lapse of time were taken, and the expression levels of the reporter were observed (refer to FIG. 10(B)).

## O=C(O)Cc1c[nH]c2ccc(-c3ccccc3)cc12 [5-Ph-IAA, 5-phenyl-indole 3-acetic acid]
[1]
  degradation of mAID-EGFP-NLS reporter in clones: degradation was induced
[2]
  degradation of mAID-EGFP-CENPH by Western blotting: degradation of mAID-EGFP-CENPH was confirmed
[3]; 1 nM and 10 nM, compared with the other auxin analogs
  effect of inducing the degradation of the mAID-EGFP-NLS reporter: stronger effect
[3]; 1 μM, four hours
  degradation of mAID-EGFP-NLS reporter: efficiently degraded
[3]; AID2 system, OsTIR1(F74G)
  half-life of reporter degradation: 62.3 ± 2.0 min
[3]; DC50 OsTIR1(WT)/IAA versus OsTIR1(F74G)/5-Ph-IAA
  times lower concentration compared with conventional auxin-inducible degron systems: approximately 670 times
[3]; OsTIR1(F74G) clones compared with OsTIR1(F74A) clone
  degradation of mAID-EGFP-NLS reporter in clones: sharper degradation
[3]; OsTIR1(F74G), after degradation induction
  recovery of reporter expression after exchange to culture medium containing no 5-Ph-IAA: fully recovered after three hours
[3]; read-out: DC 50 values (concentrations for 50% degradation), mAID-EGFP-NLS reporter, OsTIR1(F74G), HCT116
  DC50: 0.45 ± 0.01 nM
[4]
  degradation of mAID-EGFP-POLD1 by Western blotting: degradation of mAID-EGFP-POLD1 was confirmed
[5]; 1 μM
  cell cycle phenotype after DHC1-mAC degradation: arrested in mitosis
  mitotic spindle formation after DHC1-mAC degradation: strong defect in mitotic spindle formation
[5]; 1 μM, clone with tags at both alleles
  degradation of DHC1-mAC: more efficiently degraded
[5]; after 24 hours
  cell phenotype after DHC1 degradation: accumulation of cells in the mitotic period was observed
  degradation of DHC1-mAID-Clover fused protein (microscopy): degraded a DHC1-mAID-Clover fused protein
[5]; clones #1 to #3
  degradation of DHC1 by Western blotting: degradation of DHC1 and mAID was confirmed
[6]
  cell cycle of RAD21-mAC degraded cells: arrested in the G2/M phase
  sister chromatid cohesion of RAD21-mAC degraded cell: profound defect
[6]; after the addition of a ligand
  T1/2 of RAD21-mAC: 11.7 min
[7]; plates containing 5 μM, OsTIR1(F74G or F74A)
  growth of mAID-introduced yeast strains: strong growth inhibition
[8]
  colony formation efficiency: no change
  influence on the cell cycle: no influence
  toxicity: no toxicity
[9]
  degradation of mAID fused targets (SMC2, CTCF, POLR2A): rapidly degraded

## O=C(O)Cc1c[nH]c2ccccc12 [IAA]
[10]
  T1/2 of RAD21-mAC: 26.5 min
[7]; 500 μM, OsTIR1(WT and F74A)
  growth of mAID-introduced yeast strains: growth suppression
[11]; 100 μM, four hours
  degradation of mAID-EGFP-NLS reporter: the reporter was degraded
[11]; conventional system, OsTIR1(WT)
  half-life of reporter degradation: 147.1 ± 12.5 min
[11]; mAID-EGFP-NLS reporter, OsTIR1(WT), HCT116, read-out: DC 50 values (concentrations for 50% degradation)
  DC50: 300 ± 30 nM
